From PMC6797481, “Identification of an allosteric binding site on the human glycine transporter, GlyT2, for bioactive lipid analgesics” (eLife, 2019)
Residue numbers refer to the chain shown, from its start.

How the values were obtained:
[1] = biological target: T1, GlyT2 Y550L mutant (Homo sapiens, UniProt Q9Y345, Y550L); assay: Glycine transport currents, two electrode voltage clamp, oocytes expressing GlyT2 Y550L; assay type: cell-based; conditions: GlyT2 Y550L; for % Max. inhibition: mean ± SEM; for IC50: greater than maximum concentration applied (footnote a)
T1 construct: expressed in transfected cells; host or cells: Xenopus laevis oocytes (cRNA injection)
T1 sequence (Q9Y345 1-797 Y550L): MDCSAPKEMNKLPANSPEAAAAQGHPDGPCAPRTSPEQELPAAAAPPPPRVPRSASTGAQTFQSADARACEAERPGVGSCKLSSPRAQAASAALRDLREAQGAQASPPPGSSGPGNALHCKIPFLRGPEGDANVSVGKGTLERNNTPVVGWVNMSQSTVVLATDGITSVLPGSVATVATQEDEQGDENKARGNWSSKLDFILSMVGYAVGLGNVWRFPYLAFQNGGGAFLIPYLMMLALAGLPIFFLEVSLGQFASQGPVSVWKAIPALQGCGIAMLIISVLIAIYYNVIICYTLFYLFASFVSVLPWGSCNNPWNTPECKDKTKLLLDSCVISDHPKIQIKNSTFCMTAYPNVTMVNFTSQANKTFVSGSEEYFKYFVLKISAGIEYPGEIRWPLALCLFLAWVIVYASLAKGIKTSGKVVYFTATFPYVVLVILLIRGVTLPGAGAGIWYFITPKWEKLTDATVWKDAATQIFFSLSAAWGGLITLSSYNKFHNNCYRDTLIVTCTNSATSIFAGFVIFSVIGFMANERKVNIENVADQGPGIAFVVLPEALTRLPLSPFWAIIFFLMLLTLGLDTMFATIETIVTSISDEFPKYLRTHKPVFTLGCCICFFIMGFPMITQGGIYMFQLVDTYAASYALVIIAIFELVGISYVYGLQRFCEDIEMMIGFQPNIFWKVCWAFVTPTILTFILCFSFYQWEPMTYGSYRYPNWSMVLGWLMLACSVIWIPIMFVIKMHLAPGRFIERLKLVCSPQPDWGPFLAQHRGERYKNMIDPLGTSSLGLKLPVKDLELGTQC
Method: (§1) Glycine was first applied to establish maximal transport current.
(§2) Compounds were tested for inhibition of glycine transport on Xenopus laevis oocytes expressing mutant GlyT1 and GlyT2 transporters. n values are in brackets, with measurements taken from at least 2 batches of oocytes.

[2] = system: GlyT1 WT; design: method as in earlier work; conditions: previously published; cited from earlier work
[3] = biological target: T2, GlyT2 WT (Homo sapiens, UniProt Q9Y345); design: expressed in transfected cells; host or cells: Xenopus laevis oocytes (cRNA injection); conditions: WT GlyT2, previously published, cited from earlier work; for GlyT2 % max. inhibition: mean ± SEM; for IC50: mean (95% CI)
T2 sequence (Q9Y345 1-797): T1 sequence (Q9Y345 1-797 Y550L) with L550Y

[4] = biological target: T3, GlyT2 F428A mutant (Homo sapiens, UniProt Q9Y345, F428A); assay: Glycine transport currents, two electrode voltage clamp, oocytes expressing GlyT2 F428A; assay type: cell-based; conditions: GlyT2 F428A; for % Max. inhibition: mean ± SEM
T3 construct: expressed in transfected cells; host or cells: Xenopus laevis oocytes (cRNA injection)
T3 sequence (Q9Y345 1-797 F428A): T1 sequence (Q9Y345 1-797 Y550L) with F428A, L550Y
Method: as §1, §2

[5] = biological target: T4, GlyT2 P561S mutant (Homo sapiens, UniProt Q9Y345, P561S); assay: Glycine transport currents, two electrode voltage clamp, oocytes expressing GlyT2 P561S; assay type: cell-based; conditions: GlyT2 P561S
T4 construct: expressed in transfected cells; host or cells: Xenopus laevis oocytes (cRNA injection)
T4 sequence (Q9Y345 1-797 P561S): T1 sequence (Q9Y345 1-797 Y550L) with L550Y, P561S
Method: as §1, §2

[6] = biological target: T5, GlyT2 W563L mutant (Homo sapiens, UniProt Q9Y345, W563L); assay: Glycine transport currents, two electrode voltage clamp, oocytes expressing GlyT2 W563L; assay type: cell-based; conditions: GlyT2 W563L
T5 construct: expressed in transfected cells; host or cells: Xenopus laevis oocytes (cRNA injection)
T5 sequence (Q9Y345 1-797 W563L): T1 sequence (Q9Y345 1-797 Y550L) with L550Y, W563L
Method: as §1, §2

| % Max. inhibition [1] | IC50 ([5]; mean (95% CI)) | % Max. inhibition ([5]; mean ± SEM) | IC50 ([6]; mean (95% CI)) | % Max. inhibition ([6]; mean ± SEM) | SMILES | IC50 [2] | GlyT2 % max. inhibition [3] | IC50 [1] | IC50 [3] | IC50 ([4]; mean (95% CI)) | % Max. inhibition [4] | IC50 [4] | % Max. inhibition (% inhibition at the highest concentration of inhibitor used) ([4]; footnote b) |
| --- | --- | --- | --- | --- | --- | --- | --- | --- | --- | --- | --- | --- | --- |
| 41.1 ± 6.2 (p=0.0115) % |  |  |  |  | CCCCCCCC/C=C\CCCCCCCC(=O)N[C@@H](CC(C)C)C(=O)O [oleoyl l-Leucine] | > 10 µM | 72.2 ± 3.8% |  |  |  |  |  |  |
|  |  |  |  |  | CCCCCCCCCCC=CCCCC(=O)NCC(=O)O [C16 ω11 Glycine] | > 10 µM | 97.9 ± 2.3% |  | 3.4 µM | 4.81 µM | 103 ± 7.7 (p=0.6075) % |  |  |
|  |  |  |  |  | CCCCC=CCCCCCCCC(=O)NCC(=O)O [C14 ω5 Glycine] | > 10 µM | 100 ± 7.2% |  | 9.2 µM |  |  | > 30 µM | 33.4 ± 3.0^b (p=0.0007) % |
|  |  |  |  |  | CCCCCCCCCC=CCCCCCCC(=O)NCC(=O)O [C18 ω10 Glycine] | > 10 µM | 52.4 ± 2.2% |  | 0.34 µM | 0.776 µM | 25.3 ± 5.3 (p=0.0092) % |  |  |
| 11.2 ± 1.6 (p=0.0001) % | 0.58 µM | 80.3 ± 7.3 (p=0.7241) % | 0.661 µM | 62.3 ± 5.3 (p=0.3662) % | CCCCCCCC/C=C\CCCCCCCC(=O)N[C@@H](CO)C(=O)O [oleoyl l-Serine] | > 3 µM | 73.1 ± 5.1% | > 3 µM |  |  |  |  |  |
|  |  |  |  |  | CCCCCCCC=CCCCCCCCCC(=O)NCC(=O)O [C18 ω8 Glycine] | > 10 µM | 61.3 ± 1.7% |  | 0.32 µM |  | 13.2 ± 2.7 (p=0.0001) % | > 10 µM |  |

| SMILES | % Max. inhibition [1] | IC50 ([5]; mean (95% CI)) | % Max. inhibition ([5]; mean ± SEM) | IC50 ([6]; mean (95% CI)) | % Max. inhibition ([6]; mean ± SEM) | IC50 [2] | GlyT2 % max. inhibition [3] | IC50 [1] | IC50 [3] | IC50 ([4]; mean (95% CI)) | % Max. inhibition [4] | IC50 [4] | % Max. inhibition (% inhibition at the highest concentration of inhibitor used) ([4]; footnote b) |
| --- | --- | --- | --- | --- | --- | --- | --- | --- | --- | --- | --- | --- | --- |
| CCCCCCCC/C=C\CCCCCCCC(=O)N[C@@H](CCCNC(=N)N)C(=O)O [oleoyl l-Arginine] | 9.3 ± 1.4 (p=0.0001) % |  |  |  |  | > 3 µM | 87.2 ± 3.7% | > 3 µM | 0.0479 µM |  |  |  |  |
